In the experiment the test system is C57BLKS db/db mice. The experiment is described as follows: 10 days study: fasting blood glucose and oral glucose tolerance in db/db mice. Format: in vivo, mouse. The note with it: for Blood glucose (15 min after glucose application) / Blood glucose (before glucose application): fasted 24 h; for Blood glucose (15 min after glucose application): 15 min after oral 1 g/kg glucose; for Blood glucose (before glucose application): 1 h after dose. The procedure: Female C57BLKS db/db mice obtained from M&B A/S (8680 Ry, Denmark) were used in the studies at 10 to 11 weeks of age. Mice were housed 10 per cage and allowed free access to water and standard laboratory diet for rodents (chow 3433, Provimi Kliba SA, 4303 Kaiseraugst, Switzerland).
Mice were allowed to acclimate to the local animal facilities for 1 week and retro-orbital blood samples were obtained 3 to 7 days prior to the start of the study.
Mice were treated with vehicle, Roflumilast or Roflumilast-N-Oxide, respectively once daily in the morning. Roflumilast or Roflumilast-N-Oxide was suspended in 4% methocel and applied via oral gavage using oral feeding & dosing needles (outer diameter: 1.5 mm, TSE GmbH, 61350 Bad Homburg, Germany). A volume of 10 ml/kg body weight was administered for each dose.
10 days studies: Mice were treated with vehicle, Roflumilast or Roflumilast-N-Oxide once daily in the morning. On day 9, mice were fasted for 24 hours by removing standard diet for laboratory animals 1 hour after drug application. On day 10, one hour after administration of vehicle, Roflumilast or Roflumilast-N-Oxide glucose tolerance was assessed by oral application of 1 g/kg/10 ml glucose. Blood was sampled before and 15 minutes after glucose application and levels of glucose (accu-chek, Roche Diagnostics GmbH, 68298 Mannheim, Germany) were measured.

Where [1] appears, read: Roflumilast 1 mg/kg oral once daily 10 days.
[2] abbreviates: Roflumilast 10 mg/kg oral once daily 10 days.

With `O=C(Nc1c(Cl)cncc1Cl)c1ccc(OC(F)F)c(OCC2CC2)c1` [Roflumilast, 3-cyclopropylmethoxy-4-difluoromethoxy-N-(3,5-dichloropyrid-4-yl)benzamide], under setting [1], the “Blood glucose (15 min after glucose application)” value stood at 507 mg/dL and the “Blood glucose (before glucose application)” value came to 347 mg/dL. Further, under setting [2], the “Blood glucose (15 min after glucose application)” value is 412 mg/dL and the “Blood glucose (before glucose application)” value was 191 mg/dL. Under “db/db mice”, the “Effect on fasting blood glucose levels (summary in words)” value is “reduce” and the “Effect on postprandial blood glucose levels (summary in words)” value is listed as “reduce”.
